Laboratory results from ChEMBL document CHEMBL1212725, “Enzymatic transition states and dynamic motion in barrier crossing” (Nat Chem Biol, 2009).
Values belong to the molecule of their own block, whether it stands above or below them.

Legend:
[1] = target: T1, Purine nucleoside phosphorylase (Homo sapiens, UniProt P00491); assay: Binding affinity to human PNP
T1 sequence (P00491 whole entry): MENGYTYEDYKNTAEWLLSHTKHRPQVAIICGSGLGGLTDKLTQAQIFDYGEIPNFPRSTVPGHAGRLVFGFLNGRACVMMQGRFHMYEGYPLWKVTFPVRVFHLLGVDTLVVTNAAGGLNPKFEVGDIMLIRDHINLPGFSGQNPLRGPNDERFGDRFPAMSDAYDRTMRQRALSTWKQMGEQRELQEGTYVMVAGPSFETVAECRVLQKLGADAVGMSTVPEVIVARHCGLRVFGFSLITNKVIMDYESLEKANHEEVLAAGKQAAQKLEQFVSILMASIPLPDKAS

[2] = target: T2, Purine nucleoside phosphorylase (Homo sapiens) (UniProt P00491); assay: Binding affinity to human PNP assessed as kinetic isotope effect; settings: tested as the 3H-labelled form
T2 sequence (whole entry): T1 sequence (P00491 whole entry)

[3] = substrate: O=c1[nH]cnc2c1ncn2[C@@H]1O[C@H](CO)[C@@H](O)[C@H]1O; assay: Activity at human PNP

Molecule: [3H]C(O)[C@H]1CN(Cc2c[nH]c3c(=O)[nH]cnc23)C[C@@H]1O (stereo partly drawn)
Kd [1]: 8.5 pM

Activity [2]: 4.7%
Molecule: O=c1[nH]cnc2c1ncn2[C@@H]1O[C@H](CO)[C@@H](O)[C@H]1O

B1: Purine nucleoside phosphorylase (Homo sapiens), P00491 (protein)
chain: T1 sequence (P00491 whole entry)
Km [3]: 40 µM
